Laboratory results from the CheMixHub ionic liquid set.

Assay: xn = mol fraction of the nth substance listed
Settings: 100 kPa

CCCC[N+](C)(C)C.O=S(=O)([N-]S(=O)(=O)C(F)(F)F)C(F)(F)F + O=S(=O)([N-]S(=O)(=O)C(F)(F)F)C(F)(F)F.[Li+] + O
viscosity [mPa·s]
Settings	293.15 K	298.15 K	303.15 K	313.15 K	323.15 K	333.15 K	343.15 K	353.15 K	363.15 K
x2 = 0.2745, x1 = 0.2745	100	78	59	38.1	26.5	19	14.2	10.9	8.61
x2 = 0.3106, x1 = 0.2745	150	115	88.9	53.9	35.5	24.7	18.1	13.7	10.6
x2 = 0.3509, x1 = 0.2745	264	192	145	87.4	51	34.7	24.6	18.2	13.9
x2 = 0.3868, x1 = 0.2745	341	245	182	106	65.4	43.1	30.1	21.3	16.5
x2 = 0.4308, x1 = 0.2745	494	401	289	162	99	58.8	40.6	28.8	21.2

CC[n+]1ccn(C)c1.O=C([O-])C(F)(F)F + OCC(O)CO
Settings	electrical conductivity, 298.15 K [S/m]	electrical conductivity, 313.15 K [S/m]	viscosity, 293.15 K [mPa·s]	viscosity, 298.15 K [mPa·s]	viscosity, 303.15 K [mPa·s]	viscosity, 313.15 K [mPa·s]
x1 = 0.002	0.000383	0.0012	1382	893	592	280.8
x1 = 0.004	0.00069	0.00217	–	–	–	–
x1 = 0.013	0.00211	0.0066	1264	818	544	259.8
x2 = 0.202	0.81	1.37	47	38.2	31.3	22
x2 = 0.3	0.71	1.23	58	46.3	37.5	25.7
x2 = 0.399	0.57	1.02	65.5	51.5	41.1	27.5
x2 = 0.5	0.436	0.84	86	66.1	51.7	33.4
x2 = 0.6	0.305	0.63	115.9	86.6	66.1	40.8
x2 = 0.7	0.184	0.411	177.8	128.2	94.6	55
x2 = 0.8	0.08	0.199	316	218.7	155.2	84.1
x2 = 0.9	0.023	0.065	639	427	291.2	146.8
x2 = 0.956	0.0076	0.0231	983	643	432	210
x2 = 0.979	0.00328	0.0103	1188	772	514	246.5

CC[n+]1ccn(C)c1.O=C([O-])C(F)(F)F + OCCN(CCO)CCO
Settings	electrical conductivity, 298.15 K [S/m]	electrical conductivity, 313.15 K [S/m]	viscosity, 293.15 K [mPa·s]	viscosity, 298.15 K [mPa·s]	viscosity, 303.15 K [mPa·s]	viscosity, 313.15 K [mPa·s]
x1 = 0.006	0.00085	0.0024	878	581	395	197.6
x1 = 0.007	0.00084	0.00237	871	576	392	196.1
x2 = 0.393	0.423	0.76	76.3	60	47.9	32
x2 = 0.501	0.287	0.54	98.1	75.4	59	38.1
x2 = 0.6	0.182	0.37	135.1	101	77	47.7
x2 = 0.692	0.109	0.237	190.6	139	103.5	61.2
x2 = 0.778	0.061	0.143	279.5	198.3	143.8	81.2
x2 = 0.857	0.0281	0.07	413	284.7	201.3	108.7
x2 = 0.931	0.0095	0.0268	621	419	289.4	149.9
x2 = 0.966	0.00397	0.0113	751	501	344	174.6
x2 = 0.98	0.0025	0.007	775	518	354	179.3

CC[n+]1ccn(C)c1.O=C([O-])C(F)(F)F + OCCO
Settings	electrical conductivity, 298.15 K [S/m]	electrical conductivity, 313.15 K [S/m]	viscosity, 293.15 K [mPa·s]	viscosity, 298.15 K [mPa·s]	viscosity, 303.15 K [mPa·s]	viscosity, 313.15 K [mPa·s]
x1 = 0.001	0.0126	0.0215	20.8	16.9	13.8	9.56
x1 = 0.003	0.0278	0.0473	20.8	16.8	13.8	9.54
x1 = 0.009	0.065	0.111	20.6	16.7	13.7	9.53
x1 = 0.015	0.106	0.18	20.5	16.6	13.7	9.49
x2 = 0.489	1.36	2.23	20.6	17.5	14.9	11.1
x2 = 0.602	1.48	2.25	18.4	15.5	13.2	9.84
x2 = 0.71	1.33	2.06	17.2	14.5	12.3	9.09
x2 = 0.783	1.11	1.72	17.2	14.3	12.1	8.83
x2 = 0.843	0.89	1.41	17.6	14.6	12.2	8.81
x2 = 0.894	0.63	1.03	18.4	15.1	12.5	8.95
x2 = 0.934	0.415	0.69	19.3	15.8	13	9.2
x2 = 0.97	0.2	0.339	20.2	16.4	13.5	9.4
